Data published in article PMC9231138, “Dihydrotanshinone I Enhances Cell Adhesion and Inhibits Cell Migration in Osteosarcoma U−2 OS Cells through CD44 and Chemokine Signaling” (Molecules, 2022).

Experiments:
Type in all cases: cell-based, human
E-cadherin = assay: RT-PCR E-cadherin mRNA in U−2 OS cells; conditions: 24 h
Experimental: (§1) Total RNA within cells was extracted by the RNAeasy™ Animal Long RNA Isolation Kit with Spin Column (Shanghai, Beyotime); the concentrations and OD260/OD280 and OD230/OD260 values were measured by NanoDrop. Five micrograms of RNA was used for reverse transcription; each sample was diluted to 16 μL, and 4 μL of synthesized premix solution (5×) was added, then the mixtures were placed in a 42 °C water bath for 10 min, then an 80 °C water bath for 10 min to deactivate reverse transcriptase. After reverse transcription, each sample was diluted to 140 μL. PCR amplification was carried out by the ABI700 real-time PCR system, and the amplification reaction was detected with a SYBR probe. After PCR, actin and GAPDH were used as internal references, and the relative standard curve method (2^−ΔΔcT) determined the relative expression of mRNA.

CDK4 = assay: RT-PCR CDK4 mRNA in U−2 OS cells; conditions: 24 h
Experimental: as §1

AKT = assay: Western blot AKT; conditions: DS−1 2.5, 5.0, and 7.5 µM, 24 h
Experimental: Sample preparation: U−2 OS cells seeded in 10 cm Petri dishes were collected and washed with ice-cold PBS and RIPA lysis buffer with PMAF; phosphatase inhibitor was added, and the tubes were placed on ice for 30 min and vortexed for 30 s at intervals of 10 min. The samples were centrifuged at 12,000 g at 4 °C for 15 min, and the supernatants were collected in new centrifuge tubes. The protein samples were placed on ice, and the concentration of each protein sample was measured by the BCA kit (Thermo). The protein concentration was adjusted to the same by milli Q ultrapure water.
Loading and running the gel: Equal amounts of protein were loaded into the wells of the 10% SDS-PAGE gel, along with molecular weight markers, and 15 μg of total protein from the cell lysate was loaded. We then ran the gel for 45 min at 200 V.
Transferring the protein: We prepared the transfer stack as follows: negative plate, sponge, filter paper, gel, PVDF membrane, filter paper, sponge, and positive plate. The transfer was for 90 min at 200 mA.
Antibody staining: We blocked the membrane for 1 h at room temperature using 5% blocking solution, then incubated the membrane with appropriate dilutions of the primary antibody in the blocking solution overnight at 4 °C. […] Images were acquired using darkroom development techniques for chemiluminescence and analyzed by Image J.

[1] = test system: U−2 OS cells transfected with CD44 siRNA; assay: Trypsin digestion time, CD44 siRNA knockdown U−2 OS cells; conditions: DS−1 7.5 μM for 24 h, 25 °C, control about 120 s
Experimental: Figure 8 CD44 knockdown reduced cell adhesion by shortening cell protrusions. (A) U−2 OS cells transfected with CD44 siRNA and no siRNA were seeded into a 24-well plate treated with 7.5 μM DS−1 for 24 h, and the expression of CD44 was detected by immunofluorescence. (B) CD44 expression of U−2 OS cells was detected by Western blotting after being treated with siRNA for 0, 24, and 36 h. (C) U−2 OS cells were first transfected with/without CD44 siRNA and then treated with DS−1 for 24 h, and its actin morphologies were detected. The representative magnified actin morphologies are listed in (D). (E) The lengths of protrusions in (C) were analyzed by Image J and are shown in a scatterplot graph. The lengths of 20 protrusions from actin in (C) were calculated. Each value is the average of 20 lengths of protrusions, ** p < 0.01, *** p < 0.005. (F) U−2 OS cells were transfected with CD44 siRNA, then treated with 0 and 7.5 μM DS−1 for 24 h and digested with trypsin at 25 °C; the digestion time was recorded by a microscope, and photos were taken every 30 s. The percentage of digested cells is recorded in (G).
Small interfering RNA (siRNA) oligonucleotide was synthesized by Sunya Biotechnology Co., Ltd (Hangzhou, China). The siRNA sequences were as follows: sense (5′–3′), UAUUCCACGUGGAGAAAAAtt; antisense (5′–3′), UUUUUCUCCACGUGGAAUAca. […]

## Cc1cccc2c3c(ccc12)C1=C(C(=O)C3=O)[C@@H](C)CO1 [DS−1, 15,16-Dihydrotanshinone I]
E-cadherin; DS−1 2.5 µM
  E-cadherin mRNA, fold of the control group: 1.21 ± 0.16 fold
E-cadherin; DS−1 5.0 µM
  E-cadherin mRNA, fold of the control group: 1.26 ± 0.25 fold
E-cadherin; DS−1 7.5 µM
  E-cadherin mRNA, fold of the control group: 1.61 ± 0.16 fold
CDK4; first of three DS−1 doses (2.5 µM per Fig. 5 legend)
  CDK4 mRNA, fold of the control group: 0.53 ± 0.06 fold
CDK4; second of three DS−1 doses (5.0 µM per Fig. 5 legend)
  CDK4 mRNA, fold of the control group: 0.37 ± 0.02 fold
CDK4; third of three DS−1 doses (7.5 µM per Fig. 5 legend)
  CDK4 mRNA, fold of the control group: 0.29 ± 0.05 fold
AKT
  expression of AKT: no significant change
[1]
  time to total trypsin digestion: ≤ 150 s
